Experimental findings from PubChem BioAssay (NCI) are described below.

Test in all cases: NCI tumour cell line growth inhibition, 48 h
The subject of assay [1] is HCT-116 colon.
Assay [2] concerns NCI-H23 lung.
For assay [3], the system named is UACC-62 melanoma.
Assay [4] deals with K-562 leukemia.
For assay [5], the system named is UO-31 renal.
For assay [6], the system named is PC-3 prostate.
In assay [7] the test system is SK-MEL-28 melanoma.
Assay [8] deals with SF-295 CNS.
The subject of assay [9] is MOLT-4 leukemia.
Assay [10] has as its system M14 melanoma.
Assay [11] relates to OVCAR-8 ovarian.
Assay [12] deals with DU-145 prostate.
Assay [13] has as its system TK-10 renal.
Assay [14] concerns HT29 colon.
In assay [15] the test system is MDA-MB-435.
In assay [16] the test system is BT-549 breast.
The subject of assay [17] is A549 NSCLC.
In assay [18] the test system is U251 CNS.
Assay [19] has as its system NCI-H460 lung.
Assay [20] concerns RXF 393 renal.

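Step 1: Grow cells in 96-well plates. Step 2: Expose to compound for 48 hours at 5 concentrations. Step 3: Interpolate endpoints linearly; if unreached, use highest concentration. TGI: concentration producing complete growth inhibition.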

`COC(=O)N1CC2C3C4CC(C(c5ccccc5)=C4c4ccccc4)C3C21` (stereo not given): the TGI in [1] was 25.7 µM; in assay [2] it was 98.1 µM; in assay [3], 27 µM; in assay [4], > 100 µM; in [5] it was 26 µM; in assay [6] it was 69.3 µM. In addition, the TGI in assay [7] turned out to be 35.4 µM; in assay [8], 32.4 µM; in [9], 38.6 µM; in assay [10], 51.9 µM; in assay [11], 35.7 µM; in assay [12] it was 34.5 µM. Also, the TGI in assay [13] is 30.8 µM; in assay [14], 37.7 µM; in assay [15] it was 32.8 µM; in assay [16] it was 31.4 µM; in [17] it was 73.1 µM; in assay [18], 27.5 µM. Moreover, the values for the TGI in assay [19] and in assay [20] were 32.2 µM and 39.9 µM, respectively.
As to `CC/C=C(\C(=C/CC)[N+](=O)[O-])[N+](=O)[O-]`, the TGI in [1] was 35.1 µM; in assay [2], 34.3 µM; in [3], 33.6 µM; in assay [4], 71.3 µM; in assay [5], 33 µM; in [6], > 100 µM. The TGI was 37.1 µM in assay [7]; > 100 µM in [8]; 64.9 µM in assay [9]; 27 µM in assay [10]; 39 µM in assay [11]; 45.7 µM in assay [12]. Also, the TGI in assay [13] was 33.7 µM; in assay [14] it was 31.9 µM; in [15], 31.6 µM; in [16], 32.2 µM; in assay [17], > 100 µM; in [18], 34.3 µM. Besides, the TGI in assay [19] was determined as 35.5 µM; in assay [20] it was 31 µM.
